This is an account of results in patent US7247706B2, “Double mutant alpha-7 nicotinic acetylcholine receptors” (Pharmacia & Upjohn Company, priority 1999, dated 2007).

The target of experiment [1] is T1, α7 nAChR (Homo sapiens, UniProt P36544). The conditions noted are these: endogenous α7 nACh receptor; cited from earlier work.
The target of experiment [2] is T2, α7/5-HT3 Chimeric Ligand Gated Ion Channel (Homo sapiens, UniProt P36544, M226I/T225I).
T2 construct: expressed in transfected cells
T2 sequence (P36544 with tags, fused parts or gaps T225I/M226I): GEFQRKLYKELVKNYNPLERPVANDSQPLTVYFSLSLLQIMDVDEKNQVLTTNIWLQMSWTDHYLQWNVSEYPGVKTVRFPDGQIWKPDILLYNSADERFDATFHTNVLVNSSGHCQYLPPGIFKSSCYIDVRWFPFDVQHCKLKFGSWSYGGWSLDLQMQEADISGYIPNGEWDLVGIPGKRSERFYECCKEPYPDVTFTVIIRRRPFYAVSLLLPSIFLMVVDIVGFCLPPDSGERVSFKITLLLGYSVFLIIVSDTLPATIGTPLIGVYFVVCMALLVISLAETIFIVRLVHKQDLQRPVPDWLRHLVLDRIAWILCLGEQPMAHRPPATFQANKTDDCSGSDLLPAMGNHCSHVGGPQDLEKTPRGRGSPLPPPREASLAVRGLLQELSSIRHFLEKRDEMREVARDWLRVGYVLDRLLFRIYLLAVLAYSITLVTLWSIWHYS
It counts as binding, human α7 / mouse 5-HT3. The following applies: for pIC50: read-out: Fitc-α-Bungoarotoxin Binding (30 nM) IC50.

Experiment [3] addresses T3, α7/5-HT3 channel (Homo sapiens, UniProt P36544, M226I/T225I).
T3 construct: expressed in transfected cells
Briefly: Calcium flux assay on FLIPR, agonist activity, α7/5-HT3-SHEP cells. The following applies: for pEC50: calcium flux. The class given is cell-based, human α7 / mouse 5-HT3. On the procedure: The α7/5-HT3-SHEP or alternatively the human α7 nACHR double mutant SHEP (described below) cells were grown in minimal essential medium (MEM) containing nonessential amino acids supplemented with 10% fetal bovine serum, L-glutamine, 100 units/ml penicillin/streptomycin, 250 ng/ml fungizone, 400 μg/ml Hygromycin-B, and 800 μg/ml Geneticin. The cells were grown in a 37° C. incubator with 6% CO2. The α7/5-HT3-SHEP cells were trypsinized and plated in 96 well plates with dark side walls and clear bottoms (Corning # 3614) at density of […] cells per well two days before analysis. The cells were loaded in a 1:1 mixture of 2 mM Calcium Green-1, AM (Molecular Probes) prepared in anhydrous dimethylsulfoxide and 20% pluonic F-127 (Molecular Probes). This reagent was added directly to the growth medium of each well to achieve a final concentration of 2 μM of Calcium Green-1, AM. The cells were incubated in the dye for one hour at 37° C. and then washed with 4 cycles of Bio-Tek plate washer. Each cycle was programmed to wash each well with four times with either EBSS or MMEBSS. After the third cycle, the cells were allowed to incubate at 37° C. for at least ten minutes. After the fourth cycle final volume in each well was 100 μl. The cells were analyzed on FLIPR (Molecular Devices) for the change in fluorescence after the addition of a 100 μl of a 2× drug stock. FLIPR was set up to excite the dye with at 488 nanometers using 500 mW of power. A 0.5 second exposure was used to illuminate each well. Fluorescence emission was recorded above 525 nm. Fluorescence was detected using a F-stop set of either 2.0 or 1.2.
We compared the physiological Earles Balanced Salt Solution (EBBS) buffer and the special cell culture media (MMEBSS) in the Ca^++functional assay on FLIPR.
The special cell culture media, designated MMEBSS is comprised of 4 mM CaCl2, 0.8 mM MgSO4, 20 mM NaCl, 5.3 mM KCL, 5.6 mM D-Glucose, 120 mM N-Methyl-D-Glucosamine, 9 mM Tris base and 20 mM HEPES. A detailed description of the preparation of MMEBSS is provided below.

Experiment [4] deals with double mutant human α7 ligand gated ion channel (Homo sapiens, UniProt P36544, C241S/T230P). The conditions noted are these: 100 M nicotine as printed. On the procedure: The cells were grown in a 37° C. incubator with 6% CO2. […] Each cycle was programmed to wash each well with four times with either EBSS or MMEBSS. […] A 0.5 second exposure was used to illuminate each well. Fluorescence was detected using a F-stop set of either 2.0 or 1.2.
Chain of double mutant human α7 ligand gated ion channel (P36544 23-502 T230P/C241S): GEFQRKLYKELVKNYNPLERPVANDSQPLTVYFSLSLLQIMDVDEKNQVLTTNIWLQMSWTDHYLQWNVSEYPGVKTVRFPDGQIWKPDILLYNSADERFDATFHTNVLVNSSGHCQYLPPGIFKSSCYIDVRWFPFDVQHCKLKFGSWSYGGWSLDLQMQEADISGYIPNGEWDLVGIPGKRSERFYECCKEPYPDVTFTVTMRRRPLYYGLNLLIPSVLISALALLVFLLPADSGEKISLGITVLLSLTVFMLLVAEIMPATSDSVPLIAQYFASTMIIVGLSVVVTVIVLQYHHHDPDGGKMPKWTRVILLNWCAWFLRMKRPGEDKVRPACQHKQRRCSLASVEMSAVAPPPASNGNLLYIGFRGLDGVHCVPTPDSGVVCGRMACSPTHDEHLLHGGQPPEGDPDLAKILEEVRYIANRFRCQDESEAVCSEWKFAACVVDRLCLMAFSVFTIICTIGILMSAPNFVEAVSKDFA

The target of experiment [5] is T1, α7 nAChR. The following applies: human receptor; cited from earlier work.
In experiment [6] the target is chicken α7 nAChR (Gallus gallus, UniProt P22770). The following applies: chicken receptor; cited from earlier work.
Chain of chicken α7 nAChR (P22770 23-502 limits assumed): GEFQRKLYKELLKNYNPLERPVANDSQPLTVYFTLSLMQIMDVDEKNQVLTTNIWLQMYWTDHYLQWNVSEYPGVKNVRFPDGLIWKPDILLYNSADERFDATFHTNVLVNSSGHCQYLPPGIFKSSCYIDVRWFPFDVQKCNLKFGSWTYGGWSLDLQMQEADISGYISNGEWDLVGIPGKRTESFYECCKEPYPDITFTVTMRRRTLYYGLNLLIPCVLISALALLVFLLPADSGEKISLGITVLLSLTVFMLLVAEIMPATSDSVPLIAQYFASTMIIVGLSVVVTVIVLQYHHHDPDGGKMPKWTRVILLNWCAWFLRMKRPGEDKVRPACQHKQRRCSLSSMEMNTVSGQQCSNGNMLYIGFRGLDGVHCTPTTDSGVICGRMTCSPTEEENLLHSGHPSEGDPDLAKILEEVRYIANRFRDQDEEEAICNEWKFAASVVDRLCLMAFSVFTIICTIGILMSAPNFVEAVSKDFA

Molecules are shown by their SMILES. pEC50, pIC50, pKi: −log10 of the molar value. Like-named read-outs stand apart in the source and are kept apart here.

T1 sequence (P36544 23-502): as the sequence (P36544 23-502 T230P/C241S) above, with P208T, S219C counted along it
T3 sequence (P36544 with tags, fused parts or gaps T225I/M226I): as the sequence (P36544 with tags, fused parts or gaps T225I/M226I) above

The term pEC50 denotes −log10 of the EC50, conventionally taken in molar units. In general, pIC50 refers to −log10 of the IC50, conventionally taken in molar units. As a reminder, the pKi is the negative decadic logarithm of the Ki, by convention in mol/L. As for `Clc1ccc([C@@H]2C[C@H]3CC[C@@H]2N3)cn1` (racemic) [(+/−) Epibatidine], the values for the negative-log EC50 (pEC50) in experiment [1] and in experiment [3] (MMEBSS) were 5.70 and 6.92, respectively. Also, the pIC50 in experiment [2] is 7.05. Also, in experiment [2] (read-out: Ki, competition for Fl-btx binding), the pKi was 7.05.
For the compound `CN1CCCC1c1cccnc1` (single isomer, unassigned; (-)) [(−) Nicotine], the Calcium influx entry in experiment [4] is reported as “induced a maximal calcium influx”. Besides, in experiment [2], the “Competition of Fl-btx binding” value is reported as “competes at all concentrations of Fl-btx”. Further, the “Calcium response to agonist in physiological buffer” value in experiment [3] (100 μM, EBSS, FIG. 6) is recorded as “little calcium was detected”. For the same compound, the “Calcium response to agonist in special cell culture media” value in experiment [3] (100 μM, MMEBSS, FIG. 6) is recorded as “evoked a large increase in intracellular calcium”.
With `C[N+]1(C)CCN(c2ccccc2)CC1` [1,1-dimethyl-4-phenylpiperazinium], the Agonist character result was “full agonist” in experiment [5] and “partial agonist” in experiment [6].
`Cc1cc([C@@H]2CCCN2C)on1` [ABT-418]: the negative-log EC50 (pEC50) in experiment [1] was 4.15; in experiment [3] (MMEBSS), 4.57. For the same compound, in experiment [2], the pIC50 was 4.42.
For `c1cncc(C2=NCCCC2)c1` [Anabaseine], the pEC50 in experiment [1] was 5.22; in experiment [3] (MMEBSS), 5.18.
As for `COc1ccc(/C=C2\CCCN=C2c2cccnc2)c(OC)c1` [GTS-21], the pEC50 in experiment [1] was 4.52. For the same compound, the pIC50 in experiment [2] (30 nM Fl-btx, whole cell) is 4.80.
For the compound `CNC1(C)C2CCC(C2)C1(C)C` (stereo not shown) [Mecamylamine], in experiment [2], the pIC50 is less than 3.52.
In the case of `CCN1C[C@]2(COC(=O)c3ccccc3N3C(=O)C[C@H](C)C3=O)CC[C@H](OC)[C@@]34[C@@H]5C[C@H]6[C@H](OC)[C@@H]5[C@](O)(C[C@@H]6OC)[C@](O)([C@@H](OC)[C@H]23)[C@@H]14` [Methyllcaconitine (MLA), Methyllcaconitine], the negative-log IC50 (pIC50) in experiment [2] is 7.59.
